Key:
NK3 receptor = target: T1, NK3 receptor (Homo sapiens, UniProt P29371); experiment: NK binding affinity, scintillation proximity assay (SPA), 125I [MePhe7]-NKB; details: plasma membrane from CHO cell lines expressing NK3, read-out: NK3 pKi (converted)
T1 construct: expressed in transfected cells; host or cells: CHO cell line, plasma membrane preparation
T1 sequence (P29371 1-465): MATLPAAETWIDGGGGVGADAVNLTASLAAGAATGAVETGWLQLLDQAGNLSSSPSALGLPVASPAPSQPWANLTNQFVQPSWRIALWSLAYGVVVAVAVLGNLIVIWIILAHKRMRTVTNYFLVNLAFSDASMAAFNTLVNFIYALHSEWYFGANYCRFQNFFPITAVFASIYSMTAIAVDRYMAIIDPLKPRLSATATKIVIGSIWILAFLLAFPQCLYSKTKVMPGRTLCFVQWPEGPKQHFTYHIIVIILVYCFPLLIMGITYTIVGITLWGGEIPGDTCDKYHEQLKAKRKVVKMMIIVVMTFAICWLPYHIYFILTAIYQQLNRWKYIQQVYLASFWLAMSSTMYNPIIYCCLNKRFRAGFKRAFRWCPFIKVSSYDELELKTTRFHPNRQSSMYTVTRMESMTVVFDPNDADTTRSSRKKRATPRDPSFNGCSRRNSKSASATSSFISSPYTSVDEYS
Protocol: (§1) The NK binding affinity of the compounds of the invention was determined using the following scintillation proximity assay (SPA) (see H. M. Sarau et al, J. Pharmacol. Experimental Therapeutics 1997, 281(3), 1303-1311; H. M. Sarau et al, J. Pharmacol. Experimental Therapeutics 2000, 295(1), 373-381; G. A. M. Giardina et al J.Med.Chem 1999, 42, 1053-1065). ^125I Substance P, ^125I NKA and ^125I [MePhe7]-NKB were used in the binding SPA of NK1, NK2 and NK3 receptor, respectively. Polystrene Leadseeker WGA-SPA beads (Amersham Biosciences) were mixed with plasma membrane prepared from CHO cell lines expressing NK1, NK2 or NK3 in a bead/membrane ratio of 20:1 (w/w) in assay buffer (75 mM Tris pH 7.8, 75 mM NaCl, 4 mM MnCl2, 1 mM EDTA, 0.05% Chaps, 1 mM PMSF). The mixture was placed on ice for 30 minutes to allow the formation of membrane/bead complex before BSA was added to a final concentration of 1%. After another 30 minutes incubation on ice, the bead/membrane complex was washed twice and suspended in assay buffer. ^125I-labelled ligands were then added to the bead/membrane complex. 30 μl of the resulting mixture was then dispensed into each well of a Nalgen NUNC 384-well plate with 1 μl compound pre-dispensed in 50% DMSO. The plates were then sealed and pulse spun at 1100 rpm. After 3 hours incubation at room temperature with shaking, the plates were spun for 2 min at 1100 rpm and measured in Viewlux imager (PerkinElmer) for 5 minutes with a 618-nm filter. Inhibition of radioactive ligand binding to its respective receptor was measured by the reduction of signal. pKi was calculated using Kd of each radioactive ligand determined in a separate experiment.

[1] = Measurement of brain exposure; assay type: in vivo; details: rats, orally dosed 3 mg/kg as 1% methylcellulose suspension; brain homogenate concentration vs time over 12 hr
Protocol: Compounds of the invention were orally dosed (3 mg/kg) to rats as 1% methylcellulose (w/v) suspensions. The rats were sacrificed after set time intervals and the concentration of the compound of the invention in brain homogenate was determined by protein precipitation followed by LC-MS-MS analysis of the extracts against standards prepared in brain homogenate. A graph of brain concentration against time was plotted over a 12 hr period. The area under the curve (AUC, units=hours.ng/g brain) was taken as a measure of brain exposure.

NK1 receptor = target: T2, NK1 receptor (Homo sapiens, UniProt P25103); experiment: NK binding affinity, scintillation proximity assay (SPA), 125I Substance P; details: plasma membrane from CHO cell lines expressing NK1, read-out: NK1 pKi (converted)
T2 construct: expressed in transfected cells; host or cells: CHO cell line, plasma membrane preparation
Protocol: as §1

NK2 receptor = target: T3, NK2 receptor (Homo sapiens, UniProt P21452); experiment: NK binding affinity, scintillation proximity assay (SPA), 125I NKA; details: plasma membrane from CHO cell lines expressing NK2, read-out: NK2 pKi (converted)
T3 construct: expressed in transfected cells; host or cells: CHO cell line, plasma membrane preparation
T3 sequence (P21452 1-398): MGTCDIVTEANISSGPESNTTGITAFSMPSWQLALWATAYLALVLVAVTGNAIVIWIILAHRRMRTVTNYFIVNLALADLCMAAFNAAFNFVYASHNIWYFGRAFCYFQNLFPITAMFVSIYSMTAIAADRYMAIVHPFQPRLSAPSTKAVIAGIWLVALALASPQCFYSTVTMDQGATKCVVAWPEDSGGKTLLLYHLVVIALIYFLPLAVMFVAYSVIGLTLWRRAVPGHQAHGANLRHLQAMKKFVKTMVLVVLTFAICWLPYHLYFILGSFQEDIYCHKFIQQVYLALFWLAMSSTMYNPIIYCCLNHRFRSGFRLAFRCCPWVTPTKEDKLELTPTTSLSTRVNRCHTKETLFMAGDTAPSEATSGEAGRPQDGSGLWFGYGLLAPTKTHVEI
Protocol: as §1

T2 sequence (P25103 whole entry): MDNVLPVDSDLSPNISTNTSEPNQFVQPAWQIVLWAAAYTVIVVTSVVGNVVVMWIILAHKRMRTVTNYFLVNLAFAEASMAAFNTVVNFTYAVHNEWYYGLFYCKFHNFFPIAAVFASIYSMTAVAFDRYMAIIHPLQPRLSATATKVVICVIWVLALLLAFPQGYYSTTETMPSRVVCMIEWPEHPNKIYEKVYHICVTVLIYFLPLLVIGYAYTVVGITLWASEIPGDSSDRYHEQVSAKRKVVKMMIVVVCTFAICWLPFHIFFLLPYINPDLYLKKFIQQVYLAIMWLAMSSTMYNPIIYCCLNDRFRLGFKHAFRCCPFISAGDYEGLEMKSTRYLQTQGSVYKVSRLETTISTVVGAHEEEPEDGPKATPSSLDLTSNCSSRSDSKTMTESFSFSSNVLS

Row | Ki (NK3 receptor) [nM] | Brain Exposure (AUC, h · ng/g brain) [1] [h · ng/g brain] | Ki (NK1 receptor) [nM] | Ki (NK2 receptor) [nM] | SMILES
1 | 2.51 | 2091 | 631 | 158 | O=C(N[C@H](c1cccc(F)c1)C1CC1)c1c(Cn2nccn2)c(-c2ccccc2)nc2ccccc12 [Example 37, 2-Phenyl-3-[1,2,3]triazol-2-ylmethyl-quinoline-4-carboxylic acid [(S)-1-cyclopropyl-1-(3-fluoro-phenyl)-methyl]-amide]
2 | 10 | 1896 | 1000 | 316 | O=C(N[C@H](c1ccccc1)C1CC1)c1c(Cn2nccn2)c(-c2cccc(F)c2)nc2ccccc12 [Example 1, 2-(3-Fluoro-phenyl)-3-[1,2,3]triazol-2-ylmethyl-quinoline4-carboxylic acid ((S)-1-cyclopropyl-1-phenyl-methyl)-amide]
3 | 3.98 | 2361 | 1260 | 251 | O=C(N[C@H](c1cccc(F)c1)C1CC1)c1c(Cn2ncnn2)c(-c2ccccc2)nc2ccccc12 [Example 35, 2-Phenyl-3-tetrazol-2-ylmethyl-quinoline-4-carboxylic acid [(S)-1-cyclopropyl-1-(3-fluoro-phenyl)-methyl]-amide]
4 | 10 | 1900 | 1260 | 251 | O=C(N[C@H](c1ccccc1)C1CC1)c1c(Cn2ncnn2)c(-c2cccc(F)c2)nc2ccccc12 [Example 45, 2-(3-Fluoro-phenyl)-3-tetrazol-2-ylmethyl-quinoline-4-carboxylic acid ((S)-1-cyclopropyl-1-phenyl-methyl)-amide]
